# Data: patent US5310938A, “Substituted arylpyrrole compounds” (American Cyanamid Company, priority 1993, dated 1994)
# Several values for one entry are separate records, joined by “and”; a condition that tells them apart may be missing. Identical values can stand only once. Like-named read-outs stand apart in the source and are kept apart here.
# Legend:
# Psoroptes cuniculi = experiment: Filter paper contact test against Psoroptes cuniculi (Rabbit Ear Mite); format: in vivo; details: Psoroptes ovis
# Method: On the day prior to the test initiation the drugs to be evaluated are dissolved in acetone and diluted to the desired concentrations. The concentration is calculated so that 400 μl contains the amount of test compound to be placed on each filter paper. 400 μl of this solution is pipetted onto a top (3.7 cm dia.) and bottom (3.5 cm dia.) filter paper disks which are then placed on a ceramic plate to dry. There is a rough and smooth side to the filter paper. Drug should be applied to the rough side which is placed up while drying. When dry the two disks are placed in a Petri dish with the rough sides facing in, separated by one 3 mm glass bead. Dishes are held at room temperature overnight if done the day before the test.
# Scab (containing mites) is collected from the ears of infested rabbits the morning of the test. This material is placed in a large Petri dish under an illuminated magnifier. Mites crawl out of the scab and are easily collected on the point of a dissecting needle or one prong of a pair of fine forceps. The top filter paper in each dish is removed and 12 mites are placed on the bottom disk and the top paper replaced. Before replacing the top of the Petri dish the rim of the dish is smeared with Vaseline to trap any escaping mites.
# For evaluation tests there are generally 4 replicates of each dose which are counted at 24 hours. After mites are added to the dishes, the dishes in each replicate are placed in a tray which is then placed in a plastic bag with several wet towels and held at room temperature.
# After 24 hours dishes are examined under a dissecting scope. Each dish is opened carefully and the top filter paper removed and saved. A 1/2 cm circle is drawn on the bottom filter paper and the paper gently wet in the area of the circle. All mites from the dish are transferred into the wet circle area and counted. The top cover is replaced on each dish and the dishes set aside for at least 15 minutes. After standing the dishes are examined and the mites remaining on the circle counted. These mites are dead. Percent mortality of the mites is then calculated for each treatment.
# Housefly Larvae = experiment: Inhibition of pupation of newly emerged housefly larvae; format: in vivo; details: Musca domestica, 168 h, one week, 27° C., corrected by Abbott's formula
# Method: In this test system newly emerged housefly larvae are grown on an undefined medium of fermented whole milk and dried beef blood. Compounds are added to the milk and activity is determined by the failure of larvae to pupate.
# The test is run in 1 oz. plastic medicine cups. Paper toweling is cut in pieces approximately 3.5×10 cm. Three of these pieces are folded accordion style and placed in each paper cup. A piece of masking tape is placed on the outside of the cup to facilitate numbering. Cups should be prepared prior to the day the test is to begin.
# Newly hatched housefly larvae are obtained on the morning the test is to begin. The eggs are laid the night before and larvae usually begin to hatch by 9-10 AM the following morning.
# Twenty-four hours before the initiation of the test, one half gallon of whole milk is divided into 5 1-liter beakers and placed in an incubator at 39° C.
# The morning of the test, one 250 ml beaker is labeled for each treatment. The fermented milk is removed from the incubator, stirred and poured into each of the small beakers. The beakers are then returned to the incubator and 1-2 g of dried beef blood added to each beaker to distribute blood which will not dissolve. The beakers are again returned to the incubator.
# Doses of compounds are calculated so that 0.1 ml contains the amount of compound to be added to 100 ml of milk. Compounds should be dissolved in acetone. 100 μl of acetone is added to each control beaker.
# Each beaker is removed from incubator and placed on a magnetic stirrer. The compound is added and thoroughly mixed. Then 20 ml portions are removed and added to labelled test cups (4 reps/treatment). Cups are placed in stainless steel tray until all are prepared. […] The tray containing the cups are then placed in a plastic bag and maintained at room temperature.
# The media that the fly eggs are laid in is spread out in a green or black pan so that larvae can be observed. Working under an illuminated magnifier 20 larvae are transferred into each cup using a fine paint brush. Each cup is then sealed in a Zip-Loc sandwich bag with a few pinholes in it.
# Bags containing cups are placed on a flat tray and placed in a 27° C. incubator for one week. The majority of the larvae will have pupated at this point.
# Trays are then removed from the incubator and the number of pupae in each bag recorded. The paper toweling is removed and examined closely for any pupae that have remained in the cups. Most of the pupae will be loose in the bag. A note is also made of any dead or live developed larvae. If there are larvae that appear capable of pupating, the bag may be returned to the incubator for a day to see if they will pupate.
# The percent development of pupae is then calculated. The final results are expressed as a percent inhibition of pupation and are corrected for control mortality by using Abbott's formula.
# Caenorhabditis elegans = experiment: Nematicidal activity against C. elegans (motility rating); format: in vivo, C. elegans (Bristol strain); design: key: 9: complete kill; 8: no motility; 7: markedly reduced motility in approximately 95% of worms; 6: reduced motility; 5: slightly reduced motility; 0: normal motility, same as controls; details: read at 4 and 24 hours post-immersion
# Method: Cultures of C. elegans (Bristol strain from J. Lewis) are maintained on E. coli lawns on NG Agar Plates at 20° C. New cultures are established weekly.
# Nematodes for testing are washed from 4-5 day old cultures using Fresh Ascaris Ringers Solution (FARS). The worms are further washed with FARS,-containing gentamycin, to reduce bacterial contamination and centrifuged to separate worms from wash solution. This procedure is repeated three times. The washed worms are then added to C. brigassae Maintenance Medium (CbMM), from GIBCOa to which is added gentamycin (600 units/ml) and mycostatin (0.5 mg/ml).
# Compounds are dissolved in acetone and made up to volume with equal parts of water. The final test concentration of each compound in the mixture is 150 ppm. The test material is micropipetted (25 ul) into a single well of a 96-well sterile tissue culture plate (COSTAR)^b and the solvent allowed to evaporate. These "treated" plates are used immediately or stored in a refrigerator without apparent adverse effects on the compounds.
# A freshly prepared volume ([…]) of C. elegans in CbMM is micropipetted into each treated well and several control wells per plate. Culture plates are incubated at 20° C.
# Observations for efficacy are made under a dissecting microscope at 4 and 24 hours post-immersion. Immediately prior to reading the plate, it is gently tapped to stimulate the movement of the worms. Activity is judged based on the drug effects on motility of the adults and larvae. […] Other factors indicating activity are easily noted such as death, rigor mortis, contraction, coiling, paralysis, abnormal twitching, reduced worm population in 48 hours and other deviation from normal behavior.
# Day 0 Inoculate E. Coli-NG Agar Dish With 30-40
# Day 4 Harvest New C. Elegans Population
# Add C. Elegans (25-100 µL) To "Medicated"
# Observe for Activity at 4 hours Post-
# Day 5 Observe For Activity
# [1] = system: Trichostrongylus colubriformis; experiment: Control of helminths (T. colubriformis) in infected gerbils; format: in vivo, Trichostrongylus colubriformis (sheep origin) in gerbils
# Excerpt: Each test generally consists of 75 infected gerbils, randomly distributed 2 or 3 per cage (the number of animals per cage is consistent within a specific experiment). Generally, there are 8-9 untreated control gerbils (3-4 cages) per test. The remaining cages are assigned a treatment, usually 1 cage per compound or dose.
# Compounds administered in diet are fed for 4 days. Animals treated by gavage or injection are generally treated on only 1 day (usually day 7).
# In accordance with this test, gerbils are each orally infected by gavage, with about 400 Trichostrongylus colubriformis infective larvae of sheep origin. The infected animals are then permitted to feed and drink ad libitum for six days. On day 7 the infected gerbils are randomly placed in rodent cages 2 or 3 animals per cage. The animals in each cage are weighed and the feed for each cage weighed. If the treatment to be evaluated is medicated feed, said medicated feed is offered on day 7 and continued through day 11 of the trial. If the treatment to be evaluated is a single oral dose or a parenteral treatment, the animals are given the medication by gavage or injection on day 7 and receive unmedicated feed and water through day 11 of the trial. On day 11 the animals and their feed are weighed. Thereafter the animals are euthanized by CO2 inhalation and their small intestines removed, inverted on application sticks and incubated in tap water at 39° C. for 1-5 hours. The sticks and intestines are then discarded and the worms from each treatment counted to determine the % mortality of the worms as compared to untreated controls.
# Ctenocephalides felis = experiment: Filter paper contact test against the cat flea; format: in vivo; details: 20.0 μg/cm^2, 24 hour
# Method: This test is conducted in the same manner as the mite filter paper test described in Example 2 with the following exceptions:
# (1) only one filter paper is used on the bottom of the dish;
# (2) Unfed fleas that have emerged from pupae within the last 24 hours are used for the test. Fleas are initially collected in glass vials and then temporarily immobilized by placing the vials in ice. Once the fleas are no longer active, vials are opened and fleas dumped into Petri dishes. The number of fleas per dish will vary but generally contain 8-12 fleas.
# (3) Dishes are held for 24 hours until the mortality counts are made;
# (4) Edges of the Petri dish are sealed with Scotch tape to prevent escape of the fleas; and
# (5) Dishes are not opened when test is read but fleas are observed under dissecting scope in the dishes. Some fleas will move under the filter paper so dish should be inverted to check. Fleas are considered dead if they cannot remain upright and jump.
# Dermacentor variabilis = experiment: Filter paper contact test against larval stages of the Dogtick; format: in vivo; details: for mortality at 1 µg/cm2, 1 µg/cm2: 1.0 μg/cm^2, 48 hour; for mortality at 5 µg/cm2, 5 µg/cm2: 5.0 μg/cm^2, 48 hour; for mortality at 10 µg/cm2, 10 µg/cm2: 10.0 μg/cm^2, 48 hour
# Method: The test procedure used herein is the same procedure described in Example 2, for evaluating the arylpyrroles for control of Psoroptes cuniculi the Rabbit Ear Mite, with the following exceptions:
# (1) Unfed larval ticks are obtained from egg masses laid by gravid female ticks removed from dogs and each replicate receives ticks from the same egg mass;
# (2) Ticks survive longer than mites in the Petri dishes, thus readings are made 48 hours or longer after the test is initiated; and
# (3) When reading the test it may be necessary to blow on the ticks to stimulate their movement.
# [2] = 4.0 μg/cm^2, 24 hour, read-out: 24 hour % Mortality
# [3] = 24 h, read-out: 24 hour % Mortality
molecule,measurement,setting,value
"N#CCn1c(Cl)c(Cl)c(C#N)c1-c1ccc(C(F)(F)F)cc1 [2,3-Dichloro-4-cyano-5-(α,α,α-trifluoro-P-tolyl)-pyrrole-1-acetonitrile]","mortality at 4 µg/cm2, 4 µg/cm2",Psoroptes cuniculi; [2],77%
same,inhibition at 10 ppm,Housefly Larvae,100%
same,Rating Against C. Elegans 150 ppm,Caenorhabditis elegans,9
4-Bromo-1-(ethoxymethyl)-5-(trifluoromethyl)pyrrole-3-carbonitrile,% Helminth removal,"[1]; 500 PPM in diet, 4 days",13%
"O=[N+]([O-])c1cc(C(F)(F)F)[nH]c1-c1ccc(Cl)c(Cl)c1 [2-(3,4-Dichlorophenyl)-3-nitro-5-(trifluoromethyl)-pyrrole]","mortality at 4 µg/cm2, 4 µg/cm2",Psoroptes cuniculi; [3],100%
same,inhibition at 10 ppm,Housefly Larvae,100%
same,"mortality at 20 µg/cm2, 20 µg/cm2",Ctenocephalides felis,73%
same,Rating Against C. Elegans 150 ppm,Caenorhabditis elegans,9
"CCOCn1c(Cl)c(Cl)c(C#N)c1-c1ccc(C(F)(F)F)cc1 [4,5-Dichloro-1-(ethoxymethyl)-2-(α,α,α-trifluoro-P-tolyl)pyrrole-3-carbonitrile]","mortality at 1 µg/cm2, 1 µg/cm2",Dermacentor variabilis,52%
same,"mortality at 5 µg/cm2, 5 µg/cm2",Dermacentor variabilis,100%
same,"mortality at 10 µg/cm2, 10 µg/cm2",Dermacentor variabilis,97%
same,"mortality at 0.01 µg/cm2, 0.01 µg/cm2",Psoroptes cuniculi; [3],48%
same,"mortality at 0.1 µg/cm2, 0.1 µg/cm2","Psoroptes cuniculi; 0.1 μg/cm^2, 24 hour",20%
same,"mortality at 1 µg/cm2, 1 µg/cm2","Psoroptes cuniculi; 1.0 μg/cm^2, 24 hour",100%
same,"mortality at 4 µg/cm2, 4 µg/cm2",Psoroptes cuniculi; [2],92%
same,"mortality at 16 µg/cm2, 16 µg/cm2","Psoroptes cuniculi; 16.0 μg/cm^2, 24 hour",100%
same,inhibition at 10 ppm,Housefly Larvae,64%
same,"mortality at 20 µg/cm2, 20 µg/cm2",Ctenocephalides felis,71%
same,Rating Against C. Elegans 150 ppm,Caenorhabditis elegans,9
CCOCn1c(-c2ccc(Cl)cc2)c(C#N)c(Br)c1C(F)(F)F [4-bromo-2-(P-chlorophenyl)-1-(ethoxymethyl)-5-(trifluoromethyl)pyrrole-3-carbonitrile],"mortality at 1 µg/cm2, 1 µg/cm2",Dermacentor variabilis,77%
same,"mortality at 4 µg/cm2, 4 µg/cm2","Dermacentor variabilis; 4.0 μg/cm^2, 48 hour",83%
same,"mortality at 5 µg/cm2, 5 µg/cm2",Dermacentor variabilis,100%
same,"mortality at 10 µg/cm2, 10 µg/cm2",Dermacentor variabilis,100%
same,"mortality at 4 µg/cm2, 4 µg/cm2",Psoroptes cuniculi; [2],76%
same,inhibition at 1 ppm,Housefly Larvae,15%
same,inhibition at 2.5 ppm,Housefly Larvae; 2.5 ppm,0%
same,inhibition at 5 ppm,Housefly Larvae; 5.0 ppm,38%
same,inhibition at 10 ppm,Housefly Larvae,99%
same,Rating Against C. Elegans 150 ppm,Caenorhabditis elegans,9
"O=[N+]([O-])c1c(-c2ccccc2)[nH]c(C(F)(F)F)c1C(F)(F)F [3-nitro-2-phenyl-4,5-bis(trifluoromethyl)pyrrole]",% Helminth removal,"[1]; 500 PPM in diet, 4 days",42%
same,Rating Against C. Elegans 150 ppm,Caenorhabditis elegans,9
"CCOCn1c(-c2ccc(Cl)c(Cl)c2)c(C#N)c(Br)c1C(F)(F)F [4-bromo-2-(3,4-dichlorophenyl)-1-(ethoxymethyl)-5-(trifluoromethyl)-pyrrole-3-carbonitrile]",% Helminth removal,"[1]; 500 PPM in diet, 4 days",15% and 28%
same,Rating Against C. Elegans 150 ppm,Caenorhabditis elegans,9
"N#Cc1[nH]c(-c2ccc(Cl)cc2)c(C#N)c1Br [3-Bromo-5-(p-chlorophenyl)pyrrole-2,4-dicarbonitrile]",% Helminth removal,"[1]; 500 PPM in diet, 4 days",54% and 36% and 50%
same,% Helminth removal,[1]; single oral dose 10 mg/kg,25%
same,% Helminth removal,[1]; single oral dose 25 mg/kg,18%
same,"mortality at 4 µg/cm2, 4 µg/cm2",Psoroptes cuniculi; [2],48%
same,inhibition at 1 ppm,Housefly Larvae,0%
same,inhibition at 10 ppm,Housefly Larvae,100%
same,"mortality at 20 µg/cm2, 20 µg/cm2",Ctenocephalides felis,47%
same,Rating Against C. Elegans 150 ppm,Caenorhabditis elegans,9
"CCOCn1c(-c2ccc(Cl)cc2)c(C#N)c(Br)c1C(F)(F)F [4-Bromo-2-(P-chlorophenyl)-1-(ethoxymethyl)-5-(trifluoromethyl)-2-(α,α,α-trifluoro-P-tolyl)pyrrole-3-carbonitrile]",% Helminth removal,"[1]; 500 PPM in diet, 4 days",29%
